According to publication PMC3951999 (Cancer cell, 2011):

What was measured:
[1] = tested on: BCR-ABL Ba/F3 cells; assay: Western blots of CRAF immunoprecipitates and lysates, BCR-ABL Ba/F3 cells; conditions: BCR-ABL Ba/F3 cells
[2] = tested on: SW620 (KRAS^G12V), Panc1 (KRAS^G12D) and H460 (KRAS^Q61H) cells; assay: Western blot for MEK and ERK activation in KRAS mutant cells; assay type: cell-based, human; conditions: imatinib 10μM, nilotinib 1μM, dasatinib 5μM
[3] = tested on: BV173 cells; assay: Western blots of CRAF immunoprecipitates and lysates, BV173 cells; assay type: cell-based, human
[4] = tested on: K562 cells; assay: Western blots of CRAF immunoprecipitates and lysates, K562 cells; assay type: cell-based, human; conditions: imatinib 10μM, nilotinib 1μM, dasatinib 5μM
[5] = tested on: K562 cells expressing HRAS^G12V; assay type: cell-based, human
[6] = tested on: D04 cells (NRAS^Q61L); conditions: western blot
[7] = patient plasma; ref Weisberg et al., 2007; Demetri et al., 2002; cited from earlier work
[8] = molecular target: T1, CRAF (Homo sapiens, UniProt P04049); conditions: D04 cells; imatinib 10μM, nilotinib 1μM, dasatinib 5μM, 3 hr
[9] = molecular target: T1, CRAF; assay: RAF kinase assay, myc-tagged CRAF captured from COS cells; conditions: imatinib 10μM, nilotinib 1μM, dasatinib 5μM
[10] = molecular target: CRAF^T421N (Homo sapiens, UniProt P04049, T421N); assay: RAF kinase assay, myc-tagged CRAF^T421N captured from COS cells; conditions: gatekeeper mutant; imatinib 10μM, nilotinib 1μM, dasatinib 5μM
[11] = molecular target: BRAF (Homo sapiens, UniProt P15056); assay: RAF kinase assay, myc-tagged BRAF captured from COS cells; conditions: various GNF-2 concentrations, 30 min
[12] = tested on: BCR-ABL^T315I Ba/F3 cells; assay: Western blots of CRAF immunoprecipitates and lysates, BCR-ABL^T315I Ba/F3 cells; conditions: BCR-ABL^T315I Ba/F3 cells
[13] = tested on: BV173R cells; assay: Cell proliferation and apoptosis; conditions: for cell death (apoptotic sub-G1 cells): 72 hr, absence of PD184352
[14] = tested on: BRAF binding to CRAF; assay: BRAF binding to CRAF with PLX4720; assay type: cell-based; conditions: Fig S3C; cells not given
[15] = tested on: K562 cells; assay: Apoptosis; assay type: cell-based, human; conditions: PD184352 1μM, 4 days
[16] = tested on: K562R cells; assay: Apoptosis; assay type: cell-based, human; conditions: PD184352 1μM, 4 days
[17] = tested on: BCR-ABL^T315I Ba/F3 allografts; assay: Tumor allograft growth, BCR-ABL^T315I Ba/F3 cells in nude mice; assay type: in vivo; conditions: BCR-ABL^T315I tumors; 25 mg/kg, oral gavage daily
[18] = tested on: BCR-ABL Ba/F3 cells; assay: Cell proliferation, BCR-ABL Ba/F3 cells; conditions: PD184352 2μM, imatinib 3μM, nilotinib 1μM, 4 days
[19] = tested on: BV173 cells; assay: Cell proliferation and apoptosis; conditions: PD184352 0.2μM, nilotinib 0.1μM, 6 days
[20] = tested on: CD34+ hematopoietic cells from healthy individuals; assay: Cell proliferation; conditions: nilotinib 1μM, PD184352 0.3μM, 96 hr
[21] = tested on: BCR-ABL Ba/F3 cells; assay: Apoptosis; conditions: 4 days
[22] = tested on: BCR-ABL^G250E/T315I, BCR-ABL^E255K/T315I and BCR-ABL^E255V/T315I Ba/F3 cells; assay: Cell proliferation, Ba/F3 cells expressing compound BCR-ABL mutants; conditions: Ba/F3 cells with compound BCR-ABL mutants; PD184352 2μM, nilotinib 1μM, 4 days
[23] = tested on: BCR-ABL^T315I Ba/F3 cells; assay: Apoptosis; conditions: 4 days
[24] = tested on: BCR-ABL^T315I expressing mononuclear cells from imatinib-resistant CML patients; assay: Cell proliferation; conditions: primary BCR-ABL^T315I cells; nilotinib 1μM, PD184352 0.3μM, 96 hr

BRAF, sequence (P15056 whole entry): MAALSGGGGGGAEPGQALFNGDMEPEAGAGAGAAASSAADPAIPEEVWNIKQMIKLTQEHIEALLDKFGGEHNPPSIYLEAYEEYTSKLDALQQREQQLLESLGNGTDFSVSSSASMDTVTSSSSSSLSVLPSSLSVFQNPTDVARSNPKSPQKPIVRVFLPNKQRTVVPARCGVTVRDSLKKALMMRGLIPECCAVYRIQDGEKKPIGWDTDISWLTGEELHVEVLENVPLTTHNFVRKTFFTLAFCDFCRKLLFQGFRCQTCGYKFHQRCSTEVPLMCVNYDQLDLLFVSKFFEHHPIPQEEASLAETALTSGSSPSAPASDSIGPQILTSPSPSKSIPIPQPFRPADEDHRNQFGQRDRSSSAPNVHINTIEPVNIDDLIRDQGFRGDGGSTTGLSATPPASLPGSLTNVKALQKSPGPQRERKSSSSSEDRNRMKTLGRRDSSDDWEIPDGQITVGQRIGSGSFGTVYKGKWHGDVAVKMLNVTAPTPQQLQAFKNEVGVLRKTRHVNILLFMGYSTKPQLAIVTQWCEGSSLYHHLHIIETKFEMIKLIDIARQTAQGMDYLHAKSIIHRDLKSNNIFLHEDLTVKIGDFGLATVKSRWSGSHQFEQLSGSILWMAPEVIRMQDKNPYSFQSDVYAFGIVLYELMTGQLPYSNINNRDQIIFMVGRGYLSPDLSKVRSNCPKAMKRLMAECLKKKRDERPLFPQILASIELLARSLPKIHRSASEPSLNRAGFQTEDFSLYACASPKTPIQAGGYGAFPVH

## CN(C)CCOc1ccc(-c2nc(-c3ccncc3)c(-c3ccc4c(c3)CC/C4=N\O)[nH]2)cc1 [SB590885]
[1]
  BCR-ABL (Y245) and CRKL (Y207) phosphorylation: Neither agent inhibited BCR-ABL or CRKL phosphorylation
  BRAF binding to CRAF: stimulated BRAF binding to CRAF
  CRAF (S338) phosphorylation, MEK and ERK activity/phosphorylation: stimulated

## Cc1nc(Nc2ncc(C(=O)Nc3c(C)cccc3Cl)s2)cc(N2CCN(CCO)CC2)n1 [dasatinib]
[2]
  MEK and ERK activation: activated MEK and ERK
[3]
  BCR-ABL and CRKL phosphorylation: inhibited BCR-ABL and CRKL phosphorylation
  BRAF binding to CRAF: did not induce BRAF binding to CRAF
  MEK and ERK activity: inhibited MEK and ERK
[4]
  BRAF binding to CRAF: did not induce BRAF binding to CRAF
[5]; imatinib 10μM, nilotinib 1μM, dasatinib 5μM
  BRAF binding to CRAF: induced BRAF binding to CRAF
[5]; pathway already saturated
  MEK and ERK phosphorylation: did not increase MEK and ERK phosphorylation
[6]
  lowest concentration stimulating robust MEK and ERK phosphorylation: 100 nM
[7]
  peak plasma/serum concentration: ~90 nM
[8]
  endogenous CRAF kinase activity: activated
[9]
  CRAF kinase activity in vitro: inhibited
[10]
  CRAF^T421N kinase activity in vitro: resistant

## NC(=O)c1cccc(-c2cc(Nc3ccc(OC(F)(F)F)cc3)ncn2)c1 [GNF-2]
[11]
  BRAF activity in vitro: did not inhibit BRAF activity in vitro
[1]
  BCR-ABL (Y245) and CRKL (Y207) phosphorylation: blocked
  CRAF (S338) phosphorylation, MEK and ERK activity/phosphorylation: blocked
[12]
  BCR-ABL and CRKL phosphorylation: did not block BCR-ABL or CRKL phosphorylation
  BRAF binding to CRAF: did not induce BRAF binding to CRAF
  CRAF (S338) phosphorylation, MEK and ERK activity/phosphorylation: did not increase CRAF, MEK or ERK phosphorylation

## CNC(=O)c1cc(Oc2ccc(NC(=O)Nc3ccc(Cl)c(C(F)(F)F)c3)cc2)ccn1 [sorafenib]
[13]
  cell death (apoptotic sub-G1 cells): induced cell death

## CCCS(=O)(=O)Nc1ccc(F)c(C(=O)c2c[nH]c3ncc(Cl)cc23)c1F [PLX4720]
[14]
  BRAF binding to CRAF: did not induce strong binding of BRAF to CRAF

## O=C(NOCC1CC1)c1ccc(F)c(F)c1Nc1ccc(I)cc1Cl [PD184352]
[15]
  apoptosis / cell death: did not kill these cells
[16]
  growth / cell death: did not affect the growth
[17]
  tumor growth: insensitive
[18]
  cell growth: did not inhibit the growth
[19]
  cell proliferation and apoptosis: did not inhibit cell proliferation or induce apoptosis
[13]; PD184352 0.2μM, nilotinib 0.1μM, 6 days
  cell proliferation and apoptosis: did not inhibit cell proliferation or induce apoptosis
[20]
  cell proliferation: resistant
[21]
  apoptosis: did not induce apoptosis
[22]
  cell proliferation: did not affect proliferation
[23]
  apoptosis: did not induce apoptosis
[24]
  cell growth: did not affect the growth

## Oc1cc(-c2nc(-c3ccccc3)[nH]c2-c2ccncc2)ccc1Cl [L779450]
[1]
  BCR-ABL (Y245) and CRKL (Y207) phosphorylation: Neither agent inhibited BCR-ABL or CRKL phosphorylation
  BRAF binding to CRAF: stimulated BRAF binding to CRAF
  CRAF (S338) phosphorylation, MEK and ERK activity/phosphorylation: stimulated

## Cn1c(Nc2ccc(C(F)(F)F)cc2)nc2cc(Oc3ccnc(-c4ncc(C(F)(F)F)[nH]4)c3)ccc21 [RAF265]
[13]
  cell death (apoptotic sub-G1 cells): induced cell death
[12]
  BCR-ABL and CRKL phosphorylation: did not inhibit BCR-ABL or CRKL phosphorylation
  BRAF binding to CRAF: induced BRAF binding to CRAF
